Experimental data taken from patent publication US20100248272A1, “Method for identifying Smk box riboswitch modulating compounds” (Cornell University, priority 2009, published 2010).
pKd: −log10 of the molar value. Values joined by “and” are separate entries in the source; they are usually repeats but may differ in a detail not shown here. Equal entries are not always repeated. “Also recorded” adds a separate entry of the source.

Assays:
[1] = system: E. faecalis metK-lacZ fusion WT
Experimental: (§1) In this experiment, in vivo lacZ reporter gene assays were conducted as previously described (R. T. Fuchs, et al., 2006, Ibid. and R. T. Fuchs, et al., 2007, Ibid.). Enterococcus faecalis metK leader region constructs, which included the first 15 nt of the coding region, were positioned downstream of the highly expressed B. subtilis glyQS promoter. The resulting DNA fragment was inserted into a lacZ fusion vector (pFG328) to generate an in-frame metK-lacZ translational fusion in which the first five codons of metK were fused to codon 18 of lacZ. The constructs were introduced into the chromosome of B. subtilis strain BR151 (metB10 lys-3trpC2) by integration into an SPβ prophage. Bacillus subtilis strains containing the lacZ fusions were grown at 37° C. in Spizizen minimal medium containing methionine ([…]) until early exponential growth. The cells were harvested by centrifugation at 8,000 g and resuspended in Spizizen medium either with or without methionine, and samples were collected at 1-h intervals and assayed for β-galactosidase activity after toluene permeabilization of the cells.

[2] = system: E. faecalis metK-lacZ fusion U22G
Experimental: as §1

[3] = system: E. faecalis metK-lacZ fusion A93C
Experimental: as §1

[4] = system: E. faecalis metK-lacZ fusion C24U + G91A
Experimental: as §1

[5] = system: E. faecalis metK-lacZ fusion C24U
Experimental: as §1

[6] = system: E. faecalis metK-lacZ fusion U22G + A93C
Experimental: as §1

[7] = system: E. faecalis metK-lacZ fusion C25U + G90A
Experimental: as §1

[8] = system: E. faecalis metK-lacZ fusion C25U
Experimental: as §1

[9] = system: E. faecalis metK-lacZ fusion C24G
Experimental: as §1

[10] = system: E. faecalis metK-lacZ fusion WT; conditions: cells grown in the presence of high methionine concentrations; previously shown; cited from earlier work
[11] = system: SMK box riboswitch; assay: Competition binding assay SAM versus SAH; parameters: species or system E. faecalis; conditions: >100-fold excess of SAH over SAM
Source text: FIGS. 6A, 6B. Effects of SMK box riboswitch mutagenesis on SAM binding and apparent SAM binding constant (Ka) determination. (A) Effects of mutation (with s.d.) on SAM binding by size-exclusion filtration assay, as described. (B) SAM and SAH Kd determination by competition binding assay.
(§2) The Kd value for the full-length SMK transcript was further confirmed by fluorescence-quenching assays, as described below and shown in FIG. 11.

[12] = system: wild-type 15-118 metK leader RNA (bipartite, 2-AP at A29); assay: Kd measurement by 2-AP fluorescence quenching; assay type: binding, E. faecalis; conditions: for quenching of 2-AP fluorescence: wild-type RNA
Experimental: (§3) FIG. 11. […] Increasing concentrations of SAM were added to bipartite metK leader RNA containing an internal 2-AP modification at residue A29. 2-AP fluorescence at steady-state was measured at 375 nm with an excitation wavelength of 310 nm. […] Percent quenching (ΔF/F0×100) represents the change in fluorescence normalized to the initial fluorescence observed in the absence of SAM.
(§4) For this, a bipartite RNA comprised of two half RNAs was used, which corresponds to positions 15-46 and 47-118. The two RNA halves are predicted to anneal through extensive base pairing in the P1-P3 helices to form the full-length metK leader RNA corresponding to positions 15-118, with a nick immediately upstream of residue G47 at the top of the P3 stein loop.
(§5) A 2-aminopurine (2-AP) modification was incorporated into the upstream RNA at residue A29 to monitor local conformational changes occurring at this position in response to SAM binding using florescence spectroscopy.

[13] = system: 30S ribosomal subunit on the SMK box mRNA; assay: Ribosome toeprinting analysis; assay type: biochemical; conditions: in the presence of ligand
[14] = system: U72C mutant metK leader RNA; assay: 2-AP fluorescence quenching; assay type: binding, E. faecalis; conditions: SAM concentrations up to 100 μM
Experimental: as §3, §4, §5

[15] = molecular target: SMK6 crystallization construct (53-nucleotide SMK box riboswitch); assay: Apparent Kd determination by size-exclusion filtration (modified SAM binding assay); parameters: species or system E. faecalis; conditions: 53-nt crystallization construct SMK6; [3H]-SAM
Experimental: (§6) The apparent equilibrium dissociation constants (Kd values) for the wild-type 15-118 metK leader sequence and the 53-nucleotide crystallization construct were determined using a modified SAM binding assay (J. Tomsic, et al., J. Bacteriol., 190, 823-833 (2007)). Briefly, T7 RNA polymerase transcribed RNA (1 μM) in 1× transcription buffer was refolded as described above and incubated with [^3H]-SAM ranging in concentration from 0.02 to 10 μM. Binding reactions were loaded onto Nanosep 3K Omega filters (Pall Life Sciences) and centrifuged briefly at 14,000 g to avoid large volume changes. The concentration of the RNA-[^3H]-SAM complex retained by the filter and the unbound SAM present in the flow through were determined by scintillation counting of known volumes, and nonlinear regression analyses were performed using Kaleida-Graph Version 3.51 (Synergy Software). Apparent Kd values represent the averages of at least two independent experiments for each construct with a margin of error≦5%.
as §2

[16] = system: E. faecalis SMK box U22G A93C double mutant RNA; conditions: cited from earlier work
[17] = system: E. faecalis SMK box U22G mutant RNA; conditions: U22G mutation; cited from earlier work
[18] = molecular target: full-length E. faecalis metK RNA (wild-type 15-118 metK leader sequence); assay: Apparent Kd determination by size-exclusion filtration (modified SAM binding assay); conditions: full-length transcript, positions 15-118; [3H]-SAM
Experimental: as §6, §2

[19] = system: E. faecalis SMK box C76U mutant RNA; assay: In vitro SAM binding assay (size-exclusion filtration); conditions: C76U wobble mutation
Source text: (§7) DNA templates corresponding to positions 15-118 (relative to the predicted transcription start site) of the E. faecalis metK leader were constructed by ligating overlapping pairs of complementary oligonucleotides, including a T7 RNA polymerase promoter sequence, as previously described (M. R. Yousef, et al., RNA, 9, 1148-1156 (2003) and B. A., McDaniel, et al., Mol. Microbiol., 57, 1008-1021 (2005)). Ligated products were amplified by PCR and RNAs were synthesized by T7 RNA polymerase transcription using an AmpliScribe T7 High Yield Transcription Kit (Epicentre Biotechnologies). RNAs (3 μM) in 1× transcription buffer (F. J. Grundy, et al., Nucleic Acids Res., 30, 1646-1655 (2002)) were heated to 65° C. for 5 minutes and slow-cooled to 40° C., followed by addition of radiolabeled SAM (3 μM [methyl-3H]-SAM, 15 Ci mmol^−1; GE Healthcare) in a total reaction volume of 40 μL, Binding reactions were incubated at room temperature (20-25° C.) for 15 minutes followed by passage through a Nanosep 10K Omega filter (Pall Life Sciences) by centrifugation at 14,000 g for 2.5 minutes. Filters were washed four times with 40 μL 1× transcription buffer to remove unbound SAM, and material retained by the filter was collected, mixed with Packard BioScience Ultima Gold scintillation fluid, and counted in a Packard Tri-Carb 2100TR liquid scintillation counter. No SAM was retained by the filter in the absence of RNA.

[20] = system: E. faecalis SMK box C25U mutant RNA; assay: as above
Source text: as §7

[21] = system: E. faecalis SMK box C24U G91A double mutant RNA; assay: as above; conditions: C24U G91A double mutation
Source text: as §7

[22] = system: E. faecalis SMK box G26A mutant RNA; assay: as above
Source text: as §7

[23] = system: E. faecalis SMK box U65 deletion mutant RNA; assay: as above
Source text: as §7

[24] = system: E. faecalis SMK box G88A mutant RNA; assay: as above; conditions: G88A mismatch mutation
Source text: as §7

[25] = system: E. faecalis SMK box U72C mutant RNA; assay: as above
Source text: as §7

[26] = system: E. faecalis SMK box RNA with poly(A)6 linker and G88 and G89 mutated to adenosine; assay: as above; conditions: poly(A)6 linker plus G88 and G89 to adenosine
Source text: as §7

[27] = system: E. faecalis SMK box U65C mutant RNA; assay: as above; conditions: U65C mutation
Source text: as §7

[28] = system: E. faecalis SMK box C24G mutant RNA; assay: as above; conditions: C24G mutation
Source text: as §7

[29] = system: E. faecalis SMK box G90A mutant RNA; assay: as above; conditions: G90A mutation (C25•A90 mismatch)
Source text: as §7

[30] = system: E. faecalis SMK box RNA with linker region replaced by poly(A)6; assay: as above; conditions: 11-nt linker replaced with poly(A)6
Source text: as §7

[31] = system: E. faecalis SMK box C76U G88A mutant RNA; assay: as above; conditions: C76U and G88A combined
Source text: as §7

[32] = system: E. faecalis SMK box A73G mutant RNA; assay: as above; conditions: A73G mutation
Source text: as §7

[33] = system: E. faecalis SMK box C25U G90A double mutant RNA; assay: as above; conditions: C25U G90A double mutation
Source text: as §7

[34] = system: E. faecalis SMK box A93C mutant RNA; conditions: A93C mutation; cited from earlier work
[35] = Spizizen medium with methionine

CSCC[C@H](N)C(=O)O [Met, methionine]
Ratio (−Met/+Met) [1]: 5.0
Expression of metK-lacZ fusion, +Met (β-galactosidase activity) [1, 35]: 24 +/− 5.5
Ratio (−Met/+Met) [2]: 1.4
Expression of metK-lacZ fusion, +Met (β-galactosidase activity) [2, 35]: 160 +/− 13
Ratio (−Met/+Met) [3]: 1.8
Expression of metK-lacZ fusion, +Met (β-galactosidase activity) [3, 35]: 42 +/− 1.0
Ratio (−Met/+Met) [4]: 1.5
Expression of metK-lacZ fusion, +Met (β-galactosidase activity) [4, 35]: 15 +/− 2.9
Ratio (−Met/+Met) [5]: 1.6
Expression of metK-lacZ fusion, +Met (β-galactosidase activity) [5, 35]: 200 +/− 22
Ratio (−Met/+Met) [6]: 4.4
Expression of metK-lacZ fusion, +Met (β-galactosidase activity) [6, 35]: 2.5 +/− 0.72
Ratio (−Met/+Met) [7]: 0.95
Expression of metK-lacZ fusion, +Met (β-galactosidase activity) [7, 35]: 82 +/− 16
Ratio (−Met/+Met) [8]: 2.8
Expression of metK-lacZ fusion, +Met (β-galactosidase activity) [8, 35]: 80 +/− 5.0
Ratio (−Met/+Met) [9]: 1.2
Expression of metK-lacZ fusion, +Met (β-galactosidase activity) [9, 35]: 95 +/− 6.1
reduction in expression of lacZ reporter [10]: five

Nc1ncnc2c1ncn2[C@@H]1O[C@H](CSCC[C@H](N)C(=O)O)[C@@H](O)[C@H]1O [SAH, S-adenosyl-L-homocysteine]
competition by unlabeled SAH [11]: no competition
quenching of 2-AP fluorescence [12]: not observed

C[S+](CC[C@H](N)C(=O)[O-])C[C@H]1O[C@@H](n2cnc3c(N)ncnc32)[C@H](O)[C@@H]1O (some centres unmarked) [SAM, S-adenosyl methionine]
correct positioning of the 30S ribosomal subunit on the SMK box mRNA [13]: reduced
quenching of 2-AP fluorescence [14]: No quenching; also recorded: no substantial change in fluorescence
pKd [15]: 6.24
SAM binding [16]: restores SAM binding
pKd ([12]; 2-AP fluorescence, excitation 310 nm, emission 375 nm, read-out: apparent Kd): 5.99 and 6.00
quenching of 2-AP fluorescence [12]: concentration-dependent quenching
SAM binding in vitro [17]: loss of SAM binding
pKd [18]: 6.07
SAM binding activity retained [19]: 59%
SAM binding activity ([20]; C25U mutation (U25-G90 wobble pair)): 63%
SAM binding in vitro ([20]; C25U substitution): modest reduction
SAM binding [21]: restored SAM binding
reduction of SAM binding [22]: five
decrease in SAM binding activity [23]: 20 fold
reduction in SAM binding activity [24]: 75 fold
SAM binding in the filtration assay ([25]; U72C RNA): loss of SAM binding
decrease in SAM binding activity ([25]; U72C mutation): 70 fold
SAM binding [26]: dramatically reduced
decrease in SAM binding activity [27]: 5 fold
SAM binding [28]: loss of SAM binding
SAM binding activity, of the wild type [29]: 1.3%
SAM binding activity [30]: did not affect
SAM binding, of the wild-type level [31]: 32%
reduction in SAM binding activity [32]: 80 fold
SAM binding activity [33]: loss of SAM binding activity
SAM binding in vitro [34]: loss of SAM binding
